ChEMBL document CHEMBL1122105, “Synthesis, decomposition kinetics, and preliminary toxicological studies of pure N-acetyl-p-benzoquinone imine, a proposed toxic metabolite of acetaminophen” (J Med Chem, 1982)

Assays:
[1] = Toxicity in mice 24 hr after ip administration; assay type: organism-based; settings: mouse, in vivo
[2] = Half life was determined; assay type: ADME; settings: rat
[3] = Second order rate constant was determined; assay type: functional
[4] = Rate constant was determined; assay type: functional

SMILES | LD50 at 24 h [1] [mg/kg] | half-life [2] [min] | Second order [3] [M/s] | Rate constant [4] [M/s]
CC(=O)N=C1C=CC(=O)C=C1 | 20 | 11 | 0.625 | 0.00011
CC(=O)Nc1ccc(O)cc1 [ACETAMINOPHEN] | 500 |  |  | 
